By IC50 is commonly meant the concentration that gives 50% inhibition.

Our source for the IC50 values is US11780845B2 (Relay Therapeutics, Inc., priority 2019, dated 2023).

One assay relates to SNU16 cells. Description: SNU16 Cancer Cell Line Proliferation Assay. The conditions noted are these: Homo sapiens; SNU-16 cells. The class given is cell-based. Summed up: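 Proliferation read-out: CellTiter Glo chemiluminescence after 96 h compound exposure. Test compounds, serially diluted 3-fold over 11 points from a 10 mM DMSO stock, were added to SNU16 cells plated 24 h earlier at 37 degrees.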

Another assay concerns the target FGFR2 (Homo sapiens (Human), UniProt P21802). Description: FGFR2 Biochemical Caliper Assay. The method, then:
Compounds of the present invention were also tested in a FGFR2 Biochemical Caliper Assay. Compounds were prepared in 10 mM DMSO solution and serially diluted into 11 concentrations by 3-fold dilution. […] 5 uL of ATP solution (100 uM) was added to start the reaction and the plate was incubated for 90 minutes, then 70 uL of stopping buffer (0.5M EDTA) was added to terminate the reaction. Each well was analyzed using EZ reader.

Sequence of FGFR2 (P21802 22-821): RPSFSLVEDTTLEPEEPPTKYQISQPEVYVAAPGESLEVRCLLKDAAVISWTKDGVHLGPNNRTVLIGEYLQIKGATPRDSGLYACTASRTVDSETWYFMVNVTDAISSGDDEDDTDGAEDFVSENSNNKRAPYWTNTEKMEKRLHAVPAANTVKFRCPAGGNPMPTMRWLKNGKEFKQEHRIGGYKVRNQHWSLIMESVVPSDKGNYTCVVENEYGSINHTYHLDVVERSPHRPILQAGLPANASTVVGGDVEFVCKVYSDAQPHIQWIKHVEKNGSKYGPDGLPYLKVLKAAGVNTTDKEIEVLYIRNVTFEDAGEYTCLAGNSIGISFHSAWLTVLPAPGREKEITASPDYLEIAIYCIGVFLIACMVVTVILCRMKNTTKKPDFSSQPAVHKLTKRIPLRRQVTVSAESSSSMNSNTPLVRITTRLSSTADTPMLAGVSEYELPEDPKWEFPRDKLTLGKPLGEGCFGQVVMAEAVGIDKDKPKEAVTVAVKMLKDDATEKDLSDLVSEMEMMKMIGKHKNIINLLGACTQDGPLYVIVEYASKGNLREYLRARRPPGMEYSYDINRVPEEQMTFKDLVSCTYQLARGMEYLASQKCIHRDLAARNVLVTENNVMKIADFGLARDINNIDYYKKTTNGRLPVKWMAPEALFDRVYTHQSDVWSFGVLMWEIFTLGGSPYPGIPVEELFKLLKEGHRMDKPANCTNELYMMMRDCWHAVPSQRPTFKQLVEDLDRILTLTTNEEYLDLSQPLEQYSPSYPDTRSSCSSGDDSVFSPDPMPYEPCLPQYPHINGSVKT

Turning to `C=C(C)C(=O)Nc1ccc(-c2[nH]c3ncnc(N)c3c2-c2ccc(Oc3cccc(C)n3)c(OCC)c2)cc1` [Example 788], the IC50 is not above 0.1 µM in the assay on SNU16 cells and less than 0.1 µM against FGFR2.
For `C=CC(=O)N1CCC(c2c(-c3ccc(CN4CCOCC4=O)cc3)c3c(N)ncnc3n2C)C1` (centres unmarked) [Example 789], in that order: 1 to 100 µM and 1 to 100 µM.
For `C=CC(=O)N1CCC(c2c(-c3ccc(C(O)C4CC4)cc3)c3c(N)ncnc3n2C)C1` (centres unmarked) [Example 790], in that order: 1 to 100 µM and 0.25 to 1 µM.
`C=CC(=O)N1CCC(c2c(-c3ccc(N(C)C4CCOCC4)cc3)c3c(N)ncnc3n2C)C1` (centres unmarked) [Example 791]: the half-inhibitory concentration (IC50) in the assay on SNU16 cells and against FGFR2 was 0.25 to 1 µM in each case.
`C=CC(=O)N1CCC(c2c(-c3ccn(Cc4ccccc4)c(=O)c3)c3c(N)ncnc3n2C)C1` (centres unmarked) [Example 792]: the IC50 with SNU16 cells and at FGFR2 was 0.1 to 0.25 µM in each case.
`C=CC(=O)N1CCC(c2c(-c3cnn(C4CNC4)c3)c3c(N)ncnc3n2C)C1` (centres unmarked) [Example 793]: the IC50 fell in the range of 1 to 100 µM in the assay on SNU16 cells and 0.25 to 1 µM at FGFR2.
On the same counts, the results for `C=CC(=O)N1CCC(c2c(-c3ccc(Cn4ccccc4=O)cc3)c3c(N)ncnc3n2C)C1` (centres unmarked) [Example 794] are 1 to 100 µM and 1 to 100 µM.
For the compound `C=C(C)C(=O)Nc1ccc(-c2cn3ncnc(N)c3c2-c2ccc(Oc3cccc(C)n3)cc2)cc1` [Example 795], the IC50 in the assay with SNU16 cells and at FGFR2 was 1 to 100 µM each time.
On to `C=C(C)C(=O)Nc1ccc(-c2[nH]c3ncnc(N)c3c2-c2ccc(C(=O)N3CCCC3)cc2)cc1` [Example 796], for which the IC50 is not above 0.1 µM with SNU16 cells and less than 0.1 µM on FGFR2.
For `C=CC(=O)N1CCC(c2c(-c3ccc(CN4CCCS4(=O)=O)cc3)c3c(N)ncnc3n2C)C1` (centres unmarked) [Example 797], in that order: 0.25 to 1 µM and 0.25 to 1 µM.
